According to patent US9681669B2 (priority 2012, dated 2017):
Read-outs that look alike come from different tables or passages of the source.

Key:
[1] = test system: Pathogenesis-related protein (PR-1); type: in vivo, Solanum tuberosum; conditions: BABA 0.3 g/l; all three genotypes
P. infestans = type: in vivo, Phytophthora infestans; conditions: BABA 0.3 g/l; Desiree, Bintje, Ovatio; 6 dpi

With `CC(N)CC(=O)O` (stereo not drawn) [BABA, β-aminobutyric acid] the “necrotic dots or lesions on treated plants” value (Bintje, BABA treatment (0.3 g/l)) was “no such lesions were observed”, the “necrotic dots or lesions on treated plants” value (Desiree, two days after BABA treatment (0.3 g/l)) was “Small necrotic dots or lesions” and the “PR-1 protein induction compared with SBE” value [1] was “stronger”. For the same molecule, the “effect on lesion size, SBE compared with BABA-treated plants” value (P. infestans) was “not significantly different”.
